In patent US9551718B2, “TMEM120A ion channel modulator” (priority 2014, dated 2017):

Tests used:
OA mice [1] = assay: Behavioral pain score in the OA mouse model after injection of an MSC blocker; assay type: in vivo; conditions: injection around 28 days following MIA
Protocol: (§1) Osteoarthritis is induced by injection of MIA (25 μg dissolved in 5 μl physiological saline) in the mouse knee joint. Control mice receive saline injection. The previously-described knee-bend test^28 is used to assess mechanical allodynia at the primary site of OA pain, as this test provides information regarding pain induced by movement of the affected joint^28 (FIG. 2a). Briefly, each test consists of 5 flexions and 5 extensions of the knee joint, and the total number of vocalization/struggle is recorded. The knee mechanical withdrawal threshold is determined with the Pressure Application Measurement (PAM) device, as previously described^132. Briefly, mice are gently restrained and a force transducer wrapped around the experimenter's thumb is pressed against the knee joint. […] Once the mouse withdraws its knee, the sensor identifies the maximum force applied before the withdrawal.
In an in vivo mouse OA model as described in Example 1, the OA mice further received around 28 days following injection of MIA an injection of a vehicle or either a toxin (GsMTx4 or gadolinium) blocking the MSCs.

TMEM120A [2] = target: T1, TMEM120A (Homo sapiens, UniProt Q9BXJ8); assay: Cobalt precipitate accumulation in CHO cells stably expressing TMEM120A exposed to hypotonic media; assay type: cell-based; conditions: cells pretreated with blocker
T1 construct: expressed in transfected cells
T1 sequence (Q9BXJ8 1-343): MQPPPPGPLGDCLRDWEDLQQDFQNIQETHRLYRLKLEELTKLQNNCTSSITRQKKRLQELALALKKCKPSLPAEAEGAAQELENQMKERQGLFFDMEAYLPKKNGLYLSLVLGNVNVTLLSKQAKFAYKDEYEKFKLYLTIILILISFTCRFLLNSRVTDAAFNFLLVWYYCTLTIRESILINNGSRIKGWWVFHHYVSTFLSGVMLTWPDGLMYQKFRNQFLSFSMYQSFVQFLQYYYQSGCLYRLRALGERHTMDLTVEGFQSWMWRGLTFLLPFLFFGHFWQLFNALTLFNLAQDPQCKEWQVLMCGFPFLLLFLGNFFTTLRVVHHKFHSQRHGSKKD
Source text: In an embodiment, the assay comprises exposing CHO cells stably expressing TMEM120A (or controls) to hypotonic media. The membrane stretch caused by the swelling opens the channels, enabling the influx of calcium ions and other molecules such as cobalt if present in the media. Quantitating the ion channel activity after the cobalt enters the cells can comprise treating the cells with ammonium sulphide (1.2% Sigma # A1952), then fixing them with paraformaldehyde, then amplified through the silver enhancement method and measuring the amount of cobalt precipitate compared to a control.
CHO cells stably expressing TMEM120A (or controls) were exposed to hypotonic media. The membrane stretch caused by the swelling opens the channels, enabling the influx of calcium ions. In one alternative, calcium ions are substituted for cobalt After cobalt enters the cells, it is precipitated with ammonium sulfide, then the cells are fixed for example with paraformaldehyde, the precipitate is amplified through the silver enhancement method (by following steps provided by the commercial supplier, Sigma).

[3] = test system: mechanically-activated slowly-adapting (SA) current; conditions: sensory neurons; cited from earlier work
MIA injected mice = assay: Knee flexion-extension pain score after intra-articular injection in MIA mice; assay type: in vivo, mouse; conditions: for analgesia, knee flexion-extension pain score: intra-articular
Protocol: as §1
The GsMTx4 peptide sequence is […] (SEQ ID NO: 5). […] Moreover, it confirms that intra-articular injections can reach the nerve terminals of knee-innervating nociceptors. […] This indicates the analgesia is not due to the peptide leaking out of the joint to have a systemic effect. N=6-10 for GsMTx4 injections, N=9 for all groups in lidocaine trial.

TMEM120A [4] = assay: shRNA knockdown of TMEM120A in kidney epithelial cells (mIMCD), mechanosensitivity; assay type: cell-based, mouse; conditions: lentiviral particles
Protocol: Knockdown was performed by infecting the cells in culture with lentiviral particles expressing an shRNA against TMEM120A and a puromycin resistance gene. This mean of selection enabled to identify cells that had taken up the shRNA. A quantitative polymerase chain reaction was then performed to verify that mRNA levels for TMEM120A were down. The shRNA sequence is […] TTTG (SEQ ID NO: 4).

[5] = test system: cationic stretch-activated ion channels; conditions: from the extracellular side; cited from earlier work
[6] = test system: MSC activity in knee-innervating nociceptors; assay: Outside-out patch recording of mechanically-evoked MSC current in knee-innervating nociceptors; assay type: cell-based, mouse
Protocol: Isolated mouse sensory neurons are obtained by enzymatic digestion of the dorsal root ganglia L3-L4 followed by mechanical dispersion. Joint-innervating neurons are identified by the presence of Fluorogold (FG), a retrograde tracer injected in the knee joint 72 hours prior to dissection. […] Transgenic mice that express the fluorescent protein TdTomato in nociceptors are generated by crossing Crerecombinase-dependent TdTomato reporter mice to Trpv1-Cre mice (FIG. 4). In this approach, recording can be made specifically from articular nociceptors (FG- and TdTomato-positive neurons).
Experiments are done for example 1 hour after plating the isolated neurons in petri dishes, or after 3 days in culture (for example for conducting siRNA experiments). Whole-cell^137,138 and cell-attached^100,102 recordings are obtained using glass pipettes mounted to amplifier headstages driven by motorized micromanipulators. Signals are amplified using multi-clamp 700B amplifiers. All experimental protocols, data acquisition and analysis are performed using the Clampex® and Clampfit™ software.
MSCs are activated using different approaches. In whole-cell recordings, a computer driven stimulating probe is brought near the cell membrane, then brief steps of 0.5 μm amplitude are made toward the cell at a 45 degree angle using a motorized 3-axis micromanipulator. In cell-attached recordings, brief pulses of negative pressure are applied through the recording electrode to increase membrane tension and evoke MSC opening. These pressure pulses are generated by a high-speed pressure clamp device previously validated^100,102.
An outside-out patch is formed and the minimal positive pressure (+P) is applied to open MSCs. 5 μM GsMTx4 is superfused and the protocol is run again. GsMTx4 is then washed and the same patch undergoes one final protocol run. […] Likewise, wash causes the recovery of the reduction (Kruskal-Wallis with Dunn's multiple comparisons, n=161, 85, 100 for control, GsMTx4 and wash, respectively.

OA mice [7] = assay: Von Frey test of secondary mechanical allodynia after hindpaw injection; assay type: in vivo, mouse
Protocol: Von Frey filaments are used to assess the secondary mechanical allodynia in the hindpaw (FIG. 2a). Mechanical withdrawal threshold is assessed by touching the plantar surface of the hindpaw with von Frey filaments using the up-down method as previously described^133. Positive withdrawals are counted as biting, licking and/or withdrawal of the paw during the 3 sec stimulus. In the knee-bend and PAM tests, MSC blockers are injected in the knee joint. In the von Frey test, they are injected in the intraplantar region.
To determine whether MSCs in nerve terminals at the primary site of the pathology (knee) contribute to mechanical allodynia in OA, the MSC blockers, GsMTx4 or gadolinium are injected in the knee joint of OA mice. Behavioral experiments include the knee-bend test^28 and the knee mechanical withdrawal test. To determine if MSCs contribute to secondary mechanical allodynia, GsMTx4 or gadolinium is injected in the ipsilateral hindpaw and assess secondary allodynia using the von Frey test. To determine whether these channels contribute to mechanosensitivity in the absence of allodynia, the blockers are injected in the knee joint or hindpaw of control mice.

[Gd] [gadolinium]
pain level as measured by a behavioral score (OA mice [1]): significantly decreases the pain level | accumulation of cobalt precipitate on hypotonic stimuli (TMEM120A [2]): accumulation can be prevented | block of SA current [3]: blocked

CCN(CC)CC(=O)Nc1c(C)cccc1C [lidocaine]
percentage of analgesia (MIA injected mice; 5% in DMSO, intra-articular injection, vs vehicle): significantly larger percentage of analgesia compared to vehicle

N.N.N.N.N.N.N.N.N.N.N.N.N.N.[Cl-].[Cl-].[Cl-].[Cl-].[Cl-].[Cl-].[O-2].[O-2].[Ru+3].[Ru+3].[Ru+4] [ruthenium red]
block of SA current [3]: blocked

CCGGTTCCTGCTGGTCTGGTATTATCTCGAGATAATACCAGACCAGCAGGAATT TTTG (CCGGTTCCTGCTGGTCTGGTATTATCTCGAGATAATACCAGACCAGCAGGAATTTTTG; expressed or natural sequence) [shRNA against TMEM120A, short hairpin RNA against TMEM120A expressed from lentiviral particles]
mechanosensitivity (TMEM120A [4]): reduces mechanosensitivity

GCLEFWWKCNPNDDKCCRPKLKCSKLFKLCNFSF (listed as Grammostola spatulata) [GsMTx4]
pain level as measured by a behavioral score (OA mice [1]): significantly decreases the pain level | block of cationic stretch-activated ion channels [5]: block cationic stretch-activated ion channels | accumulation of cobalt precipitate on hypotonic stimuli (TMEM120A [2]): accumulation can be prevented | analgesia, knee flexion-extension pain score (MIA injected mice; 5 μM): unable to produce analgesia | analgesia, knee flexion-extension on the ipsilateral knee (MIA injected mice; 50 μM injected in the contralateral knee): does not provide analgesia | analgesia, knee flexion-extension pain score (MIA injected mice; 50 μM, ipsilateral knee, vs saline): significant analgesia compared to vehicle | block of SA current [3]: blocked | mean open time of the channel ([6]; 5 μM superfused, outside-out patch): mean open time is also significantly reduced | mechanically-evoked current (normalized to control trace) ([6]; 5 μM superfused, outside-out patch, minimal positive pressure): significantly reduces the mechanically-evoked current | reversibility of current reduction on wash ([6]; after wash of 5 μM GsMTx4): this reduction is recovered following wash | secondary allodynia (OA mice [7]; intraplantar injection 15 days after OA induction): significant and reversible attenuation of the secondary allodynia | mechanical sensitivity (withdrawal threshold) (OA mice [7]; intraplantar injection, naïve mice): does not affect mechanical sensitivity | duration of effect on mechanical hypersensitivity (OA mice [7]; ipsilateral hindpaw injection, MIA mice): ≤ 24 h
